Ends that are not written are not given here.
Columns and labels:
human Orexin-1 receptor = molecular target: T1, human Orexin-1 receptor (Homo sapiens, UniProt O43613); assay: Antagonist affinity at human Orexin-1 receptor using FLIPR ([Ca2+]i); type: cell-based; conditions: functional pKi from IC50 by modified Cheng-Prusoff correction
T1 sequence (O43613 1-425 A280G): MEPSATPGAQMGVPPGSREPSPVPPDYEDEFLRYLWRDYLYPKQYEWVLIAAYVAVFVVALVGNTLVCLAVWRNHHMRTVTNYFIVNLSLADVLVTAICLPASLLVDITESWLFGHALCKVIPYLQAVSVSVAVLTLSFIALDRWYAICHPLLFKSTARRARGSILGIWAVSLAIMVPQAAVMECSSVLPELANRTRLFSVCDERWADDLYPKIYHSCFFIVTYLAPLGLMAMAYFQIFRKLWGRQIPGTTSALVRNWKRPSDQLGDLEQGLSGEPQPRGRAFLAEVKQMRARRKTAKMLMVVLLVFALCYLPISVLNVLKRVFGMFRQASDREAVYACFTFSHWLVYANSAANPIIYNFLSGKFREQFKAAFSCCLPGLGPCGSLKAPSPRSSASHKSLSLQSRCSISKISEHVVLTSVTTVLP
Description: (§1) Determination of antagonist affinity at human Orexin-1 and 2 receptors using FLIPR
(§2) Adherent Chinese Hamster Ovary (CHO) cells, stably expressing the recombinant human Orexin-1 or human Orexin-2 receptors or Rat Basophilic Leukaemia Cells (RBL) stably expressing recombinant rat Orexin-1 or rat Orexin-2 receptors were maintained in culture in Alpha Minimum Essential Medium (Gibco/Invitrogen, cat. no.; 22571-020), supplemented with 10% decomplemented foetal bovine serum (Life Technologies, cat. no. 10106-078) and 400 μg/mL Geneticin G418 (Calbiochem, cat. no. 345810). Cells were grown as monolayers under 95%:5% air: CO2 at 37° C.
(§3) The sequences of the human orexin 1, human orexin 2, rat orexin 1 and rat orexin 2 receptors used in this example were as published in Sakurai, T. et al (1998) Cell, 92 pp 573 to 585. Some examples were tested against the human orexin 1 receptor as published in Sakurai et al supra with the exception that the amino acid residue at position 280 was alanine and not glycine.
(§4) Cells were seeded into black clear-bottom 384-well plates (density of 20,000 cells per well) in culture medium as described above and maintained overnight (95%:5% air:CO2 at 37° C.). On the day of the experiment, culture medium were discarded and the cells washed three times with standard buffer (NaCl, 145 mM; KCl, 5 mM; HEPES, 20 mM; Glucose, 5.5 mM; MgCl2, 1 mM; CaCl2, 2 mM) added with Probenecid 2.5 mM. The plates were then incubated at 37° C. for 60 minutes in the dark with 2 μM FLUO-4AM dye to allow cell uptake of the FLUO-4AM, which is subsequently converted by intracellular esterases to FLUO-4, which is unable to leave the cells. After incubation, cells were washed three times with standard buffer to remove extracellular dye and 30 μL of buffer were left in each well after washing.
(§5) Compounds of the invention were tested in a final assay concentration range from 1.66×10^−5M to 1.58×10^−11M. Compounds of the invention were dissolved in dimethylsulfoxide (DMSO) at a stock concentration of 10 mM. These stock solutions were serially diluted with DMSO and 1 μL of each dilution was transferred to a 384 well compound plate. Immediately before introducing compound to the cells, buffer solution (50 μl/well) was added to this plate. To allow agonist stimulation of the cells, a stock plate containing a solution of human orexin A (hOrexin A) was diluted with buffer to final concentration just before use. This final concentration of hOrexin A was equivalent to the calculated EC80 for hOrexinA agonist potency in this test system. This value was obtained by testing hOrexinA in concentration response curve (at least 16 replicates) the same day of the experiment.
(§6) The loaded cells were then incubated for 10 min at 37° C. with test compound. The plates were then placed into a FLIPR™ (Molecular Devices, UK) to monitor cell fluorescence (λex=488 nm, λEM=540 nm) (Sullivan E, Tucker E M, Dale I L. Measurement of [Ca^2+]i using the fluometric imaging plate reader (FLIPR). In: Lambert DG (ed.), Calcium Signaling Protocols. New Jersey: Humana Press, 1999, 125-136). A baseline fluorescence reading was taken over a 5 to 10 second period, and then 10 μL of EC80 hOrexinA solution was added. The fluorescence was then read over a […] period.
Functional responses using FLIPR were measured as peak fluorescence intensity minus basal fluorescence and expressed as a percentage of a non-inhibited Orexin-A-induced response on the same plate. Iterative curve-fitting and parameter estimations were carried out using a four parameter logistic model and Microsoft Excel (Bowen W P, Jerman J C. Nonlinear regression using spreadsheets. Trends Pharmacol. Sci. 1995; 16: 413-417). […]

human Orexin-2 receptor = molecular target: T2, human Orexin-2 receptor (Homo sapiens, UniProt O43614); assay: Antagonist affinity at human Orexin-2 receptor using FLIPR ([Ca2+]i); type: cell-based; conditions: functional pKi from IC50 by modified Cheng-Prusoff correction, read-out: fpKi Orexin 2 receptor (converted)
T2 construct: expressed in transfected cells
T2 sequence (O43614 1-444): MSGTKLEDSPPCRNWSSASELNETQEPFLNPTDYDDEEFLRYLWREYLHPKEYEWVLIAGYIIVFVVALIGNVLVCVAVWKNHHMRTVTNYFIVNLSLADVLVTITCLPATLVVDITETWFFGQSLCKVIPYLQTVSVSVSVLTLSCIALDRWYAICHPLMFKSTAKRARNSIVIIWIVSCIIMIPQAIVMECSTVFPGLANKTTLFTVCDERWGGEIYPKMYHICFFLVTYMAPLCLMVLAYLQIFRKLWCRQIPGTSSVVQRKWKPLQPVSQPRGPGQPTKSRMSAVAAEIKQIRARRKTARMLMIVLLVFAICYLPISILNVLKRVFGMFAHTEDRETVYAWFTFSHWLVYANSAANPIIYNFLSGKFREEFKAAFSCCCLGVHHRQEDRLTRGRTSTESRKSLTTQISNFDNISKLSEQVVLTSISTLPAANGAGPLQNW
Description: as §1, §2, §3, §4, §5, §6
Functional responses using FLIPR were measured as peak fluorescence intensity minus basal fluorescence and expressed as a percentage of a non-inhibited Orexin-A-induced response on the same plate. Iterative curve-fitting and parameter estimations were carried out using a four parameter logistic model and Microsoft Excel (Bowen W P, Jerman J C. Nonlinear regression using spreadsheets. Trends Pharmacol. Sci. 1995; 16: 413-417).

rats [1] = conditions: cited from earlier work
rats [2] = conditions: cited from earlier work; remark: listed apart in the source
freely-feeding rats = conditions: central administration, 4 hour time period; cited from earlier work
rats [3] = conditions: central administration at the onset of the normal sleep period; cited from earlier work

Compound	fpKi Orexin 1 receptor (human Orexin-1 receptor)	Ki (human Orexin-2 receptor)	other results
CCOc1ccc(C)nc1C(=O)N1C[C@@H]2C[C@@H]2C[C@H]1CNc1ncc(C(F)(F)F)cn1 [Example 56, N-[((1R,4S,6R)-3-{[3-(ethyloxy)-6-methyl-2-pyridinyl]carbonyl}-3-azabicyclo[4.1.0]hept-4-yl)methyl]-5-(trifluoromethyl)-2-pyrimidinamine]	9.5		
Cc1ccc(-c2ncccc2C)c(C(=O)N2C[C@@H]3C[C@@H]3C[C@H]2CNc2ccc(C(F)(F)F)cn2)n1 [Example 51, N-({(1R,4S,6R)-3-[(3,6′-dimethyl-2,3′-bipyridin-2′-yl)carbonyl]-3-azabicyclo[4.1.0]hept-4-yl}methyl)-5-(trifluoromethyl)-2-pyridinamine]	9.2	15.8 nM	
Cc1coc(-c2ccc(C)nc2C(=O)N2C[C@@H]3C[C@@H]3C[C@H]2CNc2ncc(C(F)(F)F)cn2)n1 [Example 59, N-[((1R,4S,6R)-3-{[6-methyl-3-(4-methyl-1,3-oxazol-2-yl)-2-pyridinyl]carbonyl}-3-azabicyclo[4.1.0]hept-4-yl)methyl]-5-(trifluoromethyl)-2-pyrimidinamine]	6.0	1580 nM	
Cc1cnn(-c2ccc(C)nc2C(=O)N2C[C@@H]3C[C@@H]3C[C@H]2CNc2ccc(C(F)(F)F)cn2)c1 [Example 52, N-[((1R,4S,6R)-3-{[6-methyl-3-(4-methyl-1H-pyrazol-1-yl)-2-pyridinyl]carbonyl}-3-azabicyclo[4.1.0]hept-4-yl)methyl]-5-(trifluoromethyl)-2-pyridinamine]	9.2	0.398 nM	
CCCOc1ccc(C)nc1C(=O)N1C[C@@H]2C[C@@H]2C[C@H]1CNc1ncc(C(F)(F)F)cn1 [Example 57, N-[((1R,4S,6R)-3-{[6-methyl-3-(propyloxy)-2-pyridinyl]carbonyl}-3-azabicyclo[4.1.0]hept-4-yl)methyl]-5-(trifluoromethyl)-2-pyrimidinamine]	9.5	63.1 nM	
Cc1nc2ccc(NC(=O)Nc3ccnc4cccnc34)cc2o1 [SB334867]			high-fat pellet self-administration (rats [1]): attenuated; hedonic eating (rats [2]): potently reduced
Cc1ccc(C(=O)N2C[C@@H]3C[C@@H]3C[C@H]2CNc2ccc(C(F)(F)F)cn2)nc1-c1ncccn1 [Example 53, N-[((1R,4S,6R)-3-{[5-methyl-6-(2-pyrimidinyl)-2-pyridinyl]carbonyl}-3-azabicyclo[4.1.0]hept-4-yl)methyl]-5-(trifluoromethyl)-2-pyridinamine]	6.0	> 3310 nM	
CCCOc1ccc(C)nc1C(=O)N1C[C@@H]2C[C@@H]2C[C@H]1CNc1cnc(C)c(C)n1 [Example 58, 5,6-dimethyl-N-[((1R,4S,6R)-3-{[6-methyl-3-(propyloxy)-2-pyridinyl]carbonyl}-3-azabicyclo[4.1.0]hept-4-yl)methyl]-2-pyrazinamine]	9.0	1.26 nM	
CCOc1ccc(C)nc1C(=O)N1C[C@@H]2C[C@@H]2C[C@H]1CNc1ncc(C)cn1 [Example 55, N-[((1R,4S,6R)-3-{[3-(ethyloxy)-6-methyl-2-pyridinyl]carbonyl}-3-azabicyclo[4.1.0]hept-4-yl)methyl]-5-methyl-2-pyrimidinamine]	9.1	100 nM	
orexin-A: polypeptide ligand for the orexin-1 receptor; an agonist of the orexin receptors (QPLPDCCRQKTCSCRLYELLHGAGNHAAGILTL; ends and bridges not checked; cysteine pairing not given here; UniProt O43612 34-66, looked up)			increase of food intake over control rats receiving vehicle (freely-feeding rats): approximately four-fold; arousal (sleep/EEG) (rats [3]): dose-related increase in arousal
Cc1ccc(NC[C@@H]2C[C@H]3C[C@H]3CN2C(=O)c2nc(C)ccc2OCC2CC2)nc1 [Example 54, N-{[(1R,4S,6R)-3-({3-[(cyclopropylmethyl)oxy]-6-methyl-2-pyridinyl}carbonyl)-3-azabicyclo[4.1.0]hept-4-yl]methyl}-5-methyl-2-pyridinamine]	9.3	3.98 nM	

From patent US20100144760A1, “NOVEL COMPOUNDS” (priority 2008, published 2010)
